Assay results: US12319663B2, “Alkene-containing amide compound and application thereof” (SHENYANG SINOCHEM AGROCHEMICALS R&D CO., LTD., priority 2019, dated 2025)

Assays:
Format in all cases: in vivo
[1] = test system: zinnia; assay: Herbicidal activity, post-emergence stem and leaf spray, greenhouse: zinnia control; details: visual, 0 = no control effect, 100% = complete killing
Procedure: (§1) Seeds of broadleaf weeds (zinnia and piemarker) or grassy weeds (green bristlegrass and barnyard grass) are respectively sown in a paper cup having a diameter of 7 cm and containing nutrient soil; after sowing, the seeds are covered with 1 cm of soil; the soil is pressed and watered, and then the seeds are cultivated in a greenhouse according to a conventional method; and stems and leaves are sprayed after 2-3 leaf stage of the weeds.
(§2) After the original medicinal acetone was dissolved, the test requires to use 1% of Tween 80 to stand in running water to prepare the solution to be tested with a required concentration. According to the design dose of the test, spray treatment was carried out on a track-type crop sprayer (designed and produced by British Engineer Research Ltd.) (spray pressure is 1.95 kg/cm^2, spray volume is 50 L/hm^2 and track speed is 1.48 km/h). The test was repeated for three times. The test material was treated and then placed in an operation hall. The medicinal liquid was naturally dried in the shade, and then was placed in a greenhouse and managed according to the conventional method, The response of the weeds to the drug was observed and recorded, After treatment, the control effects of the test drug on the weeds were visually inspected regularly, expressed by 0-100%. “0” represents no control effect and “100%” represents complete killing.
According to the above test method, part of the compounds of the formula I and KC are selected for activity test of controlling the zinnia.

[2] = test system: piemarker; assay: Herbicidal activity, post-emergence stem and leaf spray, greenhouse: piemarker control
Procedure: as §1, §2
According to the above test method, part of the compounds of the formula I and KC are selected for activity test of controlling the piemarker. […]

[3] = test system: green bristlegrass; assay: Herbicidal activity, post-emergence stem and leaf spray, greenhouse: green bristlegrass control
Procedure: as §1, §2
According to the above test method, part of the compounds of the formula I and KC are selected for the activity test of controlling the green bristlegrass.

[4] = test system: barnyard grass; assay: Herbicidal activity, post-emergence stem and leaf spray, greenhouse: barnyard grass control
Procedure: as §1, §2
According to the above test method, part of the compounds of the formula I and KC are selected for the activity test of controlling the barnyard grass.

[5] = dose 37.5 g a.i./hm2, post-emergence stem and leaf spray
[6] = dose 150 g a.i./hm2, post-emergence stem and leaf spray

Cn1nnnc1N(C(=O)c1ccccc1)C(=O)c1ccc(C(F)(F)F)cc1S(C)(=O)=O [KC, reference compound] was tested, and the “Zinnia control activity (after emergence, control effect %)” value ([1]; dose 37.5 g a.i./hm^2) was 65%, the “Zinnia control activity (after emergence, control effect %)” value ([1]; dose 150 g a.i./hm^2) was 90% and the “Piemarker control activity (after emergence, control effect %)” value [2, 5] was 60%. For the same molecule, the “Piemarker control activity (after emergence, control effect %)” value [2, 6] was 85%, the “Green bristlegrass control activity (after emergence, control effect %)” value [3, 5] was 45% and the “Green bristlegrass control activity (after emergence, control effect %)” value [3, 6] was 70%. The “Barnyard grass control activity (after emergence, control effect %)” value [4, 5] was 50% and the “Barnyard grass control activity (after emergence, control effect %)” value [4, 6] was 65%.
